In patent EP1336409B1 (priority 1995, dated 1997):

Test system: mechanical allodynia
Conditions: rat, in vivo

| Substance | Effective intrathecal doses | apparent order of potency for suppression of allodynia | block of mechanical allodynia |
| --- | --- | --- | --- |
| Met(0)^12-SNX-111 [SNX-279] | 0.1 to 0.3 µg | SNX-111 =SNX-273 > SNX-279 | block mechanical allodynia significantly |
| [ala^12-SNX-111 [SNX-273] | 0.1 to 0.3 µg | SNX-111 =SNX-273 > SNX-279 | block mechanical allodynia significantly |
